A short description of data set [1]: OPTISAFE in vitro ocular irritation test, original formulation without antioxidants. To be noted: for OPTISAFE (no antioxidant) Score AVG: ROS/CL chemicals; for OPTISAFE (no antioxidant) Score AVG / OPTISAFE Score AVG: triplicate assays; for OPTISAFE Score AVG: original formulation without antioxidants. The procedure:
Surfactants were diluted.
Next a study was conducted to determine if the addition of antioxidants changes the reliability (repeatability) of the test method. After this, a large study determined if antioxidants specifically reduce the false positive rate without impacting the true positive rate and the true negative rate and then all prior test chemicals were rested with antioxidants in triplicate.

For data set [2] the following is noted: no antioxidants, predicted GHS class, cited from earlier work.
For data set [3] the following is noted: pH 6.36.
Data set [4] deals with reconstituted human corneal epithelium. Briefly: Modified EPIOCULAR test with or without ascorbic acid overlay, MTT viability.
Description: To include the antioxidant mixture in cell-based assays, the mix can be added to the medium or the test sample. Per the EPIOCULAR protocol by MatTek Corporation, the EpiOcular Assay Medium should be warmed to approximately 37° C. […] The standard operating procedures are listed as follows:
Tissue Preincubation • 1) RhCE tissues (purchased from MatTek Corporation) are equilibrated for about 15 min. • 2) The antioxidant is added to the Assay Medium and used for all steps that follow and/or the antioxidant is added to the test chemical or overlayed over the tissue prior to test chemical exposure. […] The tissues were then incubated at standard culture conditions for 30±2 min. • 3) Antioxidant procedure: The test article used was Styrene (CASRN 100-42-5, Lot No. MKCM4502). […] Modifications Required for Solids • 1) Each solid is tested by applying one leveled volumetric spoonful of material to be tested into tissue insert (approximately 50 mg). and incubated for 6 hours. • 2) Rinsing: At the end of the 6 hours, the test articles are removed by rinsing (as above). • 3) Post-treatment: After rinsing, the tissue inserts are immersed in 5 mL of previously warmed Assay Medium • 4) Recovery: Next, each insert is removed from the Assay Medium, and transferred to a plate containing 1 mL of Medium. The tissues are then incubated for 18 hours under cell culture. Cell Viability Test • 1) After the post-treatment incubation, the MTT viability test is done. • 2) A 1.0 mg/mL MTT solution is prepared and 300 μL of the MTT solution is added to each well of a 24-well plate. each insert is removed from the 6-well plate and placed into the 24-well plate containing 0.3 mL of MTT solution. The plate is then incubated for 3 hours under culture conditions. • 3) After incubation, each insert is removed from the 24-well plate and then transferred to a 24-well plate containing 2.0 mL of isopropanol. […] Alternative Visual Determination of Viability and Irritant Prediction • 1) Since viable cells turn MTT purple, the relative viability of one tissue to the next can be determined by a visual inspection. […]
Data set [5] can be described thus: OS2 (OPTISAFE2), OPTISAFE formulation with antioxidants. As to conditions: for OS2 Cons / OS2 R1 / OS2 R3: Table 7B; for OS2 Cons: majority prediction of the triplicate assays; for OS2 R1: repeat 1, with antioxidants; for OS2 R1 / OS2 R3: predicted GHS class; for OS2 R3: repeat 3, with antioxidants.
A further data set has as its system rabbit eye. To be noted: Table 7B; based on the Draize data; cited from earlier work.
[6] abbreviates: Table 7A, consensus of past transferability study.
[7] abbreviates: Table 7B, consensus of past application domain study.

These results are taken from patent US12115147B2, “Formulations and methods related to eye irritation” (Lebrun Labs LLC, priority 2020, dated 2024).

Where two headings read alike, the source gives them in different places.

Consider `CCCCC(CC)COC(=O)CS` (stereo not drawn), for which the “OPTISAFE prediction without the antioxidant mixture” value in data set [1] is listed as “overpredicted”.
Regarding `C=CCCCCCCC=C` [1,9-Decadiene], the “OPTISAFE (no antioxidant) Score AVG” value in data set [1] was determined as 22.5 ± 3.6. The “OS Cons” value in data set [2] (setting [6]) is reported as 2. Further, the “OS2 (with antioxidant) Score AVG” value in data set [3] is 11.4 ± 6.4.
On to `CCC(O)C(C)(C)C` (stereo not drawn) [2,2-Dimethyl-3-pentanol], for which, in data set [1], the “OPTISAFE prediction without the antioxidant mixture” value is listed as “overpredicted” and the “OPTISAFE Score AVG” value came out at 19.2 ± 1.2. Further, the “OS Cons” value in data set [2] (setting [6]) is on record as 2. Moreover, the “OS2 Score AVG” value in data set [3] was found to be 15.1 ± 0.4.
Take `CC(O)CC(C)O` (stereo not drawn) [2,4-Pentanediol]: the “OPTISAFE Score AVG” value in data set [1] was 12.0 ± 1.4. In data set [3], the “OS2 Score AVG” value was 10.2 ± 0.7, the OS2 score average was 9.5, the “OS2 scores ranged from” value is listed as 7.8-10.9 and the “Score = Average score” value is 9.5.
In the case of `CCOCCOCCO` [2-(2-Ethoxyethoxy)ethanol], the “OPTISAFE (no antioxidant) Score AVG” value in data set [1] is 21.7 ± 0.3. In addition, in data set [2] (setting [7]), the “OS Cons” value is given as 2. For the same compound, the “OS2 (with antioxidant) Score AVG” value in data set [3] came out at 12.0 ± 0.3.
As to `C=C(C)C(=O)OCCOCC` [2-Ethoxyethyl methacrylate], in data set [1], the “OPTISAFE (no antioxidant) Score AVG” value is 97.1 ± 18.2. The “OS Cons” value in data set [2] (setting [7]) is 1. In data set [3], the “OS2 (with antioxidant) Score AVG” value is 14.5 ± 2.7, the “OS2 Cons” value amounted to 2 and the “OS2 R1” value came to 2.
On to `CCCCCCCCCCCC` [Dodecane], for which, in data set [1], the “OPTISAFE Score AVG” value is 0.9 ± 0.8. Also, the “OS2 Score AVG” value in data set [3] worked out at 3.0 ± 2.6.
For `CCOC(C)=O` [Ethyl acetate], the “OPTISAFE Score AVG” value in data set [1] came out at 23.9 ± 2.0. Moreover, in data set [3], the “OS2 Cons” value came out at 2, the “OS2 R1” value turned out to be 2, the “OS2 R3” value came out at 2 and the “OS2 Score AVG” value came out at 25.6 ± 2.4.
`CCOCCOCC` [Ethylene glycol diethyl ether]: the “OPTISAFE (no antioxidant) Score AVG” value in data set [1] turned out to be 25.4 ± 1.8. Besides, the “OS Cons” value in data set [2] (setting [7]) was 2. In addition, in data set [3], the “OS2 (with antioxidant) Score AVG” value is recorded as 21.6 ± 2.5, the “OS2 Cons” value turned out to be 2, the “OS2 R1” value is 2 and the “OS2 R3” value turned out to be 2.
As to `C=Cc1ccccc1` [Styrene], the “OPTISAFE (no antioxidant) Score AVG” value in data set [1] is recorded as 53.5 ± 10.1. Moreover, in data set [3], the “OS2 (with antioxidant) Score AVG” value was 3.5 ± 0.8. For the same compound, the “prediction, Condition 2” value in data set [4] (ascorbic acid (0.3 mg/ml) in PBS overlay and culture medium) is “nonirritant (TN)”. In addition, in data set [4] (ascorbic acid (0.3 mg/ml) in PBS overlay and culture medium, MTT, visual), the “cell killing, Condition 2” value was “significantly less cell killing”. Also, in data set [4] (no ascorbic acid added, 50 μL, 30 min exposure, MTT, visual), the “cell killing, Condition 1” value was “extensive cell killing”.
As for `OCCOCCOCCO` [Triethylene glycol], the “OPTISAFE (no antioxidant) Score AVG” value in data set [1] was found to be 13.2 ± 3.5. The “OS Cons” value in data set [2] (setting [7]) is reported as 2. Further, in data set [3], the “OS2 (with antioxidant) Score AVG” value is reported as 5.1 ± 1.7, the OS2 score average came to 3.1, the “OS2 scores ranged from” value is reported as 2.1-4.2 and the “Score = Average score” value came to 3.1.
In the case of `c1ccc(OP(Oc2ccccc2)Oc2ccccc2)cc1` [Triphenyl phosphite], in data set [1], the “OPTISAFE Score AVG” value came to 113.3 ± 2.1. Further, the “OS Cons” value in data set [2] (setting [7]) was 1. In data set [5], the “OS2 Cons” value is given as 1, the “OS2 R1” value is listed as 1 and the “OS2 R3” value is on record as 1. In addition, the “OS2 Score AVG” value in data set [5] (new formulation with antioxidants at the in vivo concentration, triplicate assays) is recorded as 169.0 ± 9.9.
For `CC(C)Br` [iso-Propyl bromide], the “OPTISAFE prediction without the antioxidant mixture” value in data set [1] was “overpredicted”.
On to Diethylaminopropionitrile, for which the “OS Cons” value in data set [2] (setting [7]) was “CNM”. Further, in data set [5], the “OS2 Cons” value was 1, the “OS2 R1” value was 2 and the “OS2 R3” value is listed as 1. Further, the “In vivo GHS” value with rabbit eye is given as 1 (1 (no reversal by 21 days)).
